# Laboratory results published in patent US20030166004A1, “Endothelial-cell binding peptides for diagnosis and therapy” (priority 2001, published 2003).
# pKd: −log10 of the molar value. Where two headings read alike, the source gives them in different places. Ends that are not written are not given here. * marks the point of attachment. Biotin = O=C1N[C@H]2[C@H](CS[C@H]2CCCCC(=O)*)N1
# Experiments:
# [1] = test system: aortic smooth muscle cells (AoSMC)
# From the text: (§1) We developed a cell-based saturation ligand binding assay to measure the specific binding of the isolated EC binding peptides to human microvascular endothelial cells (HMVEC) and aortic smooth muscle cells (AoSMC). This assay allows the determination of the relative binding affinities of the isolated EC binding peptides. The assay is based on the highly sensitive fluorescence enhancement technique DELFIA® and coated microtitration plates. In this assay the synthetic peptides labeled with biotin at their amino terminus are incubated with fixed target cells in microtiter plate format. After incubation, the excess, unbound peptides are removed and europium labeled streptavidin added to the plates. After the removal of excess streptavidin, the europium is released and its fluorescence is measured.
# (§2) Saturation ligand binding experiments measure specific ligand binding at equilibrium at various concentrations of the ligand. Binding curves are analyzed to determine binding site or receptor number and affinity. This curve is known as a rectangular hyperbola, binding isotherm, or saturation binding curve. This curve is determined by the following equation: […]
# (§3) Y is zero initially, and increases to a maximum plateau value, Bmax. This equation describes the equilibrium binding of a ligand to a receptor as a function of increasing ligand concentration. X is the concentration of the ligand, and Y is the specific binding. Kd is the equilibrium dissociation constant, expressed in the same units as the X-axis (concentration). When the drug concentration equals Kd, half the binding sites are occupied at equilibrium.
# (§4) Streptavidin-Eu^3+ reagent (cat # 1244-105), reagent diluent (cat # 1244-111), and Enhancement Solution (cat # 1244-105) were purchased from Perkin Elmer-Wallac (Turku, Finland), and the plates were read on Wallac Victor counter. The binding constants were calculated using the method of nonlinear regression analysis with the Prizm software (GraphPad Software, Inc.).
# (§5) The HMVEC (human microvascular endothelial cell) and aortic smooth muscle cells (AoSMC) cells were purchased from Clonetics (San Diego, Calif.) and maintained according to the specifications of the supplier. In these experiments the cultures were used from passages 5 and 6 only.
# (§6) The cultured subconfluent cells were trypsinized and resuspended in the culture media according to Clonetics instructions. The diluted suspension was dispensed into a reagent reservoir with magnetic stirring bar. 50 μl of the cell suspension was dispensed into each well of the 96-well plate with the Multidrop while stirring the suspension. The seeding density was 5*10^3 cells/well. The plates are incubated at 37° C. in the atmosphere containing 5% CO2 for 48 hours.
# (§7) The cells were then washed three times with TBS with 0.01%Tween20 (wash buffer) and fixed with 2% formalin solution for fifteen minutes at 20° C. The cells were subsequently washed three times with wash buffer. The nonspecific sites on the plates were blocked by 300 μl of Pierce Casein Blocker per well for two hours at 20° C.
# (§8) The saturation binding assay was performed by adding 50μl of the biotinylated peptide per well at increasing concentrations. The concentration was ranging from 1 nM to 10 μM. All measurements were performed in triplicates. Peptide dilutions were prepared from 10 mM DMSO stocks in wash buffer. The plates were incubated for one hour at room temperature and subsequently washed five times with wash buffer using Titertek automatic plate washer to remove any unbound peptide. The biotinylated peptide bound to the cells was then allowed to react for thirty minutes with 50 μl of 2000× dilution of the streptavidin-Eu^3+ reagent, diluted in the Wallac reagent diluent. Finally, after washing the unbound streptavidin-Eu^3+ reagent, 50 μl of Wallac Enhancement Solution per well was added to release the free Eu^3+ from its chelate form. Free Eu^3+ rapidly forms a highly fluorescent stable chelate with the components of the Enhancement solution. […]
# [2] = test system: angiogenesis in Matrigel plug; test: Mouse Matrigel plug assay (FGF-induced angiogenesis, hemoglobin content); type: in vivo; conditions: for inhibition of angiogenesis in the Matrigel plug assay (in words) / inhibition of angiogenesis: mouse Matrigel plug with FGF; for inhibition of angiogenesis: peptide in the plug versus FGF-only control plug, hemoglobin levels
# Method: This assay takes advantage of the fact that Matrigel is liquid at 4° C. but becomes gel when warmed to 37° C. Thus when injected subcutaneously into the ventral region of a mouse, Matrigel solidifies and forms a so-called “Matrigel plug”. When angiogenic factors, such as FGF, are mixed with the Matrigel and injected, endothelial cells migrate into the gel plug and form functional vessels. The level of angiogenesis can then be assessed by measuring hemoglobin levels in the plugs, which are directly proportional to the extent of angiogenesis. Typically, two plugs are assayed in each mouse: one plug (control plug) contains FGF only and is used as control for angiogenesis, while the test plug contains FGF and an indicated amount of test peptide(s). In single-point assays, peptide concentration in the plug is 1 mM.
# C57BL/6 female mice, 6-8 wks.
# Basis FGF (bFGF) stock was prepared at 25 μg/ml in saline buffer +5% mouse serum albumin. The bFGF stock was added to Matrigel at 200 ng/ml. The mixture was left on ice for at least 3 hours before further use. For each mouse, 1 ml of such mixture was prepared, so that 0.5 ml of the mixture can be injected into each mouse to achieve about 100 ng/one side injection. If a test peptide were also to be added, for each mouse, 50 μl of 10 mM peptide (or 5 mM cRGD, positive control) was slowly added to Matrigel, swirling while adding. Per 5 mice, add 300 μl of peptide per 3 mls of Matrigel.
# Syringes for injection were left on ice before injection. One syringe is used for each side of the group of 5 mice. About 1 ml of the mixture can be loaded at a time and injected into 2 mice using the Becton Dickinson 1 ml syringe for subcutaneous injection (26 gauge, ⅝ths, cat# 309597). Mice were anesthetized with isofluorane in a chamber, and were pulled out just as their breathing became slow. Injection were performed subcutaneously at inner thighs of the mice.
# To determined the degree of angiogenesis, Matrigel plugs were dissected out, and placed in pre-weighed Falcon 5 ml snap-cap round bottomed tubes (polypropylene, Falcon cat# 352063). One ml of PBS was then added. The tubes were weighed with Matrigel plugs inside. The samples were kept at 4° C. until ready for hemoglobin assay.
# Sonicate samples before measuring the hemoglobin content using the Plasma hemoglobin kit from Sigma.
# [3] = test system: human microvascular endothelial cells (HMVEC); conditions: Cell Type HMVEC; for Binding Affinity: equals Bmax/Kd; for pKd: fixed cells, biotinylated peptide 1 nM to 10 μM
# From the text: as §1, §2, §3, §4, §5, §6, §7, §8
# [4] = test system: chicken aortic rings; test: Aortic ring assay (chicken aortic rings in Matrigel, microvessel formation); type: cell-based; conditions: peptide 125 to 1000 μM, 2-3 days
# From the text: The aortic ring assay is a widely used in vitro assay for angiogenesis. Typically, rat aortas are sliced crosswise and placed in Matrigel. After three to five days, microvessel sprouting can be roughly quantified by manual counting or by using image analysis. The aortic ring assay is low-cost, easy to use, and offers many assays from a single animal. A relatively new variant uses embryonic chick aortic arches (see Muthukkaruppan et al., Proceedings of the American Association for Cancer Research Annual Meeting, 2000).
# In this experiment, chicken aortic rings are embedded in Matrigel (BD BioCoat™ Matrigel™ or other equivalent products) in optimized MCDB-131 media (Sigma product number: M8537, or equivalent products from other vendors). From endothelial cells (EC) in the aortic intima, a complex network of branching and anastomosing microvessels develop interspersed with fibroblast as individual cells. In this assay the ability of the identified EC-binding peptides is tested for their abilities to inhibit EC branching and microvessel formation.
# Chicken aortic branches were dissected and cleaned from 15 day old chicken embryos, and were then rinsed well in cold PBS+Penicillin/Streptomycin (P/S) buffers. The arteries were then cut into about 1 mm rings using sterile razor blade, and the resulting rings were mounted in 10-20 μl of Matrigel (in a 48-well plate). Subsequently, 300 μl of MCDB-131 basal media+P/S containing the indicated amount of test peptide were added. The cultured rings were incubated at 37° C., with 5% CO2 for 2-3 days, and the extent of microvessel formation were evaluated as the end of the experiment.
Substance,Bmax (counts/cell) ([1]; Cell Type AoSMC),"Binding Affinity ([1]; Cell Type AoSMC, equals Bmax/Kd)","pKd ([1]; Cell Type AoSMC, fixed cells, biotinylated peptide 1 nM to 10 μM)",inhibition of angiogenesis in the Matrigel plug assay (in words) [2],Binding Affinity [1],Bmax (counts/cell) [1] [counts/cell],binding to AoSMC (in words) [1],Bmax (counts/cell) [3] [counts/cell],Binding Affinity [3],pKd [3],inhibition of angiogenesis (microvessel formation) in the aortic ring assay (in words) [4],pKd [1],inhibition of angiogenesis [2] [%],binding to smooth muscle cells compared with endothelial cells [1],"dose dependence of inhibition of angiogenesis ([2]; mouse Matrigel plug, three concentrations, n no less than 9)"
Biotin-CDCRGDCFC-OH (cysteine pairing not given here) [reference compound],7.18,28.725,6.60,–,–,–,–,–,–,–,–,–,–,–,–
Biotin-GCDSHKRLKCG (cysteine pairing not given here) [9-G5],–,–,–,tested positive,−2.127,2.937,do not bind,10.1138,19.195,6.28,tested positive,–,–,–,–
Biotin-GCHSSTWRACG (cysteine pairing not given here) [2-C10],–,–,–,tested positive,−5.709,0.9694,do not bind,8.79,3.83,5.64,tested positive,–,–,–,–
Biotin-GCMNQHSSACG (cysteine pairing not given here) [3-B5],–,–,–,–,85.24,8.354,–,3.817,394.75,8.01,–,7.01,–,–,–
Biotin-GCPTPHSGTCG (cysteine pairing not given here) [2-G9],–,–,–,tested positive,57.639,8.519,–,5.15,166.12,7.51,tested positive,6.83,57,–,–
Biotin-GCTQMRTAYCG (cysteine pairing not given here) [7-D5],–,–,–,–,28.211,10.8332,–,11.0211,2.3116,5.32,–,6.42,–,binds better to smooth muscle cells than to endothelial cells,–
HTKQIPRHIYSA [1-H5],–,–,–,tested positive,–,–,–,–,–,–,tested positive,–,44,–,linearly proportional to the concentration
cRGD [reference compound],–,–,–,–,–,–,–,–,–,–,–,–,36,–,–
